Results published in patent publication US9388162B2, “Substituted morphinans and the use thereof” (Purdue Pharma L.P., priority 2012, dated 2016).

Columns and labels:
Format in all cases: biochemical
μ-opioid receptors [1] = biological target: T1, μ-opioid receptors (Homo sapiens (Human), UniProt P35372); test: μ-opioid receptor [35S]GTPγS functional assay, HEK-293 cells; conditions: μ GTP; for EC50: read-out: Activity Response μ EC50 (nM) [mean ± SEM]; for Emax: relative to DAMGO, read-out: Activity Response μ Emax (%)
Method: (§1) [^35S]GTPγS functional assays were conducted using freshly thawed μ-receptor membranes prepared from a cell line expressing recombinant μ opioid receptor in a HEK-293, CHO or U-2 OS cell background or purchased from a commercial source (Perkin Elmer, Shelton, Conn.; or DiscovRx, Fremont, Calif.). Assay reactions were prepared by sequentially adding the following reagents to binding buffer (100 mM NaCl, 10 mM MgCl2, 20 mM HEPES, pH 7.4) on ice (final concentrations indicated): membrane protein (0.026 mg/mL), saponin ([…]), GDP ([…]) and [^35S]GTPγS (0.20 nM; Perkin Elmer, Shelton, Conn.). The prepared membrane solution (190 μl/well) was transferred to 96-shallow well polypropylene plates containing 10 μl of 20× concentrated stock solutions of the agonist [D-Ala^2, N-methyl-Phe^4 Gly-ol^5]-enkephalin (DAMGO) prepared in dimethyl sulfoxide (DMSO). Plates were incubated for 30 min at about 25° C. with shaking. Reactions were terminated by rapid filtration onto 96-well Unifilter GF/B filter plates (Perkin Elmer, Shelton, Conn.) using a 96-well tissue harvester (Perkin Elmer, Shelton, Conn.) followed by three filtration washes with 200 μl of ice-cold wash buffer (10 mM NaH2PO4, 10 mM Na2HPO4, pH 7.4). Filter plates were subsequently dried at 50° C. for 2-3 hours. BetaScint scintillation cocktail (Perkin Elmer, Shelton, Conn.) was added (50 μl/well) and plates were counted using a Packard Top-Count for 1 min/well. Data were analyzed using the sigmoidal dose-response curve fitting functions in GraphPad PRISM v. 3.0, or an in-house function for non-linear, sigmoidal dose-response curve-fitting.
(§2) μ GTP EC50 is the concentration of a compound providing 50% of the maximal response for the compound at a μ-opioid receptor.
(§3) μ GTP Emax (%) is the maximal effect elicited by a compound relative to the effect elicited by DAMGO, a standard μ agonist. Generally, the μ GTP Emax (%) value measures the efficacy of a compound to treat or prevent pain or other Conditions.
(§4) The following tables provide results on the efficacy of binding and activity response of exemplified Compounds of the Invention at the μ- and κ-opioid receptors. In TABLE 3, binding affinity of certain Compounds of the Invention to the μ- and κ-opioid receptors was determined as described above. In TABLE 4, activity response of certain Compounds of the Invention to the μ- and κ-opioid receptors was determined as described above for functional assays using HEK-293 cells. In TABLE 5, activity response of certain Compounds of the Invention to the μ- and κ-opioid receptors was determined as described above using U-2 OS cells.

μ-opioid receptors [2] = biological target: T1, μ-opioid receptors; test: μ-opioid receptor [35S]GTPγS functional assay, U-2 OS cells; conditions: μ GTP; for EC50: read-out: Activity Response μ EC50 (nM) [mean ± SEM]; for Emax: relative to DAMGO, read-out: Activity Response μ Emax (%)
Method: as §1, §2, §3, §4

κ opioid receptor [3] = biological target: T2, κ opioid receptor (Homo sapiens (Human), UniProt P41145); test: κ-opioid receptor [35S]GTPγS functional assay, HEK-293 cells; conditions: κ GTP; for EC50: read-out: Activity Response κ EC50 (nM) [mean ± SEM]; for Emax: relative to U69,593, read-out: Activity Response κ Emax (%)
Method: (§5) Membranes from HEK-293 cells, CHO or U-2 OS cells expressing the recombinant human kappa opioid receptor (κ) were prepared by lysing cells in ice cold hypotonic buffer (2.5 mM MgCl2, 50 mM HEPES, pH 7.4) (10 mL/10 cm dish) followed by homogenization with a tissue grinder/Teflon pestle. Membranes were collected by centrifugation at 30,000×g for 15 min at 4° C. and pellets were resuspended in hypotonic buffer to a final concentration of 1-3 mg/mL. Protein concentrations were determined using the BioRad protein assay reagent with bovine serum albumen as standard. Aliquots of κ receptor membranes were stored at −80° C.
(§6) Functional [^35S]GTPγS binding assays were conducted as follows. κ opioid receptor membrane solution was prepared by sequentially adding final concentrations of 0.026 μg/μl κ membrane protein (in-house), 10 μg/mL saponin, 3 μM GDP and 0.20 nM [^35S]GTPγS to binding buffer (100 mM NaCl, 10 mM MgCl2, 20 mM HEPES, pH 7.4) on ice. The prepared membrane solution (190 μl/well) was transferred to 96-shallow well polypropylene plates containing 10 μl of 20× concentrated stock solutions of agonist prepared in DMSO. Plates were incubated for 30 min at a temperature of about 25° C. with shaking. Reactions were terminated by rapid filtration onto 96-well Unifilter GF/B filter plates (Perkin Elmer, Shelton, Conn.) using a 96-well tissue harvester (Packard) and followed by three filtration washes with 200 μl ice-cold binding buffer (10 mM NaH2PO4, 10 mM Na2HPO4, pH 7.4). Filter plates were subsequently dried at 50° C. for 2-3 hours. Fifty μl/well scintillation cocktail (Perkin Elmer, Shelton, Conn.) was added and plates were counted in a Packard Top-Count for 1 min/well.
(§7) κ GTP EC50 is the concentration of a compound providing 50% of the maximal response for the compound at a κ receptor.
(§8) κ GTP Emax (%) is the maximal effect elicited by a compound relative to the effect elicited by U69,593.
as §4, with “In” for “The following tables provide results on the efficacy of binding and activity response of exemplified Compounds of the Invention at the μ- and κ-opioid receptors. In”

κ opioid receptor [4] = biological target: T2, κ opioid receptor; test: κ-opioid receptor [35S]GTPγS functional assay, U-2 OS cells; conditions: κ GTP; for EC50: read-out: Activity Response κ EC50 (nM) [mean ± SEM]; for Emax: relative to U69,593, read-out: Activity Response κ Emax (%)
Method: as §5, §6, §7, §8
as §4, with “In” for “The following tables provide results on the efficacy of binding and activity response of exemplified Compounds of the Invention at the μ- and κ-opioid receptors. In”

SMILES | EC50 (μ-opioid receptors [1]) | Emax (μ-opioid receptors [1]) | EC50 (μ-opioid receptors [2]) | Emax (μ-opioid receptors [2]) | EC50 (κ opioid receptor [3]) | Emax (κ opioid receptor [3]) | EC50 (κ opioid receptor [4]) | Emax (κ opioid receptor [4])
CCS(=O)(=O)N[C@H]1C[C@@]2(O)[C@H]3Cc4ccc(O)cc4[C@@]2(CCN3CC2CC2)CC1=O [Compound 42, N-((4bR,7S,8aS,9R)-11-(cyclopropylmethyl)-3,8a-dihydroxy-6-oxo-6,7,8,8a,9,10-hexahydro-5H-9,4b-(epiminoethano)phenanthren-7-yl)ethanesulfonamide] | > 200000 nM | 5.5% |  |  |  |  |  | 
O=C1C[C@]23CCN(CC4CC4)[C@H](Cc4ccc(O)cc42)[C@]3(O)C[C@@H]1NS(=O)(=O)c1ccccc1 [Compound 43, N-((4bR,7S,8aS,9R)-11-(cyclopropylmethyl)-3,8a-dihydroxy-6-oxo-6,7,8,8a,9,10-hexahydro-5H-9,4b-(epiminoethano)phenanthren-7-yl)benzenesulfonamide] | > 200000 nM | 0% |  |  |  |  |  | 
O=C1C[C@]23CCN(CC4CC4)[C@H](Cc4ccc(O)cc42)[C@]3(O)C[C@@H]1CCO [Compound 54, (4bR,7S,8aS,9R)-11-(cyclopropylmethyl)-3,8a-dihydroxy-7-(2-hydroxyethyl)-8,8a,9,10-tetrahydro-5H-9,4b-(epiminoethano)phenanthren-6(7H)-one] | 14.2 ± 3.39 nM | 25 ± 2.04% | 1.81 ± 0.57 nM | 26.3 ± 2.33% | 5.02 ± 0.14 nM | 34.3 ± 0.67% | 4.82 ± 0.71 nM | 88.2 ± 2.53%
CC(C)CC[C@H]1C[C@@]2(O)[C@H]3Cc4ccc(O)cc4[C@@]2(CCN3CC2CC2)CC1=O [Compound 64, (4bR,7S,8aS,9R)-11-(cyclopropylmethyl)-3,8a-dihydroxy-7-isopentyl-8,8a,9,10-tetrahydro-5H-9,4b-(epiminoethano)phenanthren-6(7H)-one] | > 200000 nM | 1% | > 200000 nM | 7.5% | 4.3 ± 1.55 nM | 33 ± 1.73% | 4.71 ± 0.12 nM | 87.3 ± 2.6%
COc1ccc2c(c1)[C@]13CCN(C)[C@H](C2)[C@]1(O)C[C@H](CC(=O)N1CCCCC1)C(=O)C3 [Compound 76, (4bR,7R,8aS,9R)-8a-hydroxy-3-methoxy-11-methyl-7-(2-oxo-2-(piperidin-1-yl)ethyl)-8,8a,9,10-tetrahydro-5H-9,4b-(epiminoethano)phenanthren-6(7H)-one] |  |  | 16700 ± 2270 nM | 61.7 ± 1.86% |  |  | > 200000 nM | 47.7 ± 2.19%
COc1ccc2c(c1)[C@]13CCN(C)[C@H](C2)[C@]1(O)C[C@H](CC(=O)N1CCCC1)C(=O)C3 [Compound 77, (4bR,7R,8aS,9R)-8a-hydroxy-3-methoxy-11-methyl-7-(2-oxo-2-(pyrrolidin-1-yl)ethyl)-8,8a,9,10-tetrahydro-5H-9,4b-(epiminoethano)phenanthren-6(7H)-one] |  |  | 17600 ± 3650 nM | 77 ± 2.08% |  |  | > 200000 nM | 49 ± 9.45%
COc1ccc2c(c1)[C@]13CCN(C)[C@H](C2)[C@]1(O)C[C@H](CC(=O)N1CCC(O)CC1)C(=O)C3 [Compound 78, (4bR,7R,8aS,9R)-8a-hydroxy-7-(2-(4-hydroxypiperidin-1-yl)-2-oxoethyl)-3-methoxy-11-methyl-8,8a,9,10-tetrahydro-5H-9,4b-(epiminoethano)phenanthren-6(7H)-one] |  |  | 10400 ± 4810 nM | 36.7 ± 9.17% |  |  | > 200000 nM | 53.3 ± 1.45%
COc1ccc2c(c1)[C@]13CCN(C)[C@H](C2)[C@]1(O)C[C@H](CC(=O)N1CCOCC1)C(=O)C3 [Compound 79, (4bR,7R,8aS,9R)-8a-hydroxy-3-methoxy-11-methyl-7-(2-morpholino-2-oxoethyl)-8,8a,9,10-tetrahydro-5H-9,4b-(epiminoethano)phenanthren-6(7H)-one] |  |  | 11700 ± 3620 nM | 60 ± 10.2% |  |  | > 200000 nM | 51 ± 0.58%
CN1CC[C@]23CC(=O)[C@@H](CC(=O)N4CCCCC4)C[C@@]2(O)[C@H]1Cc1ccc(O)cc13 [Compound 80, (4bR,7R,8aS,9R)-3,8a-dihydroxy-11-methyl-7-(2-oxo-2-(piperidin-1-yl)ethyl)-8,8a,9,10-tetrahydro-5H-9,4b-(epiminoethano)phenanthren-6(7H)-one] |  |  | 581 ± 22.1 nM | 74 ± 0.58% |  |  | 1200 ± 114 nM | 43 ± 1.73%
CN1CC[C@]23CC(=O)[C@@H](CC(=O)N4CCC(O)CC4)C[C@@]2(O)[C@H]1Cc1ccc(O)cc13 [Compound 81, (4bR,7R,8aS,9R)-3,8a-dihydroxy-7-(2-(4-hydroxypiperidin-1-yl)-2-oxoethyl)-11-methyl-8,8a,9,10-tetrahydro-5H-9,4b-(epiminoethano)phenanthren-6(7H)-one] |  |  | 1000 ± 276 nM | 84.3 ± 3.84% |  |  | 6510 ± 1190 nM | 34 ± 2.65%
CC(C)CNC(=O)C[C@H]1C[C@@]2(O)[C@H]3Cc4ccc(O)cc4[C@@]2(CCN3C)CC1=O [Compound 82, 2-((4bR,7R,8aS,9R)-3,8a-dihydroxy-11-methyl-6-oxo-6,7,8,8a,9,10-hexahydro-5H-9,4b-(epiminoethano)phenanthren-7-yl)-N-isobutylacetamide] | 2330 ± 200 nM | 67.8 ± 4.01% |  |  |  |  |  | 
CN1CC[C@]23CC(=O)[C@@H](CC(=O)NCc4ccccc4)C[C@@]2(O)[C@H]1Cc1ccc(O)cc13 [Compound 83, N-benzyl-2-((4bR,7R,8aS,9R)-3,8a-dihydroxy-11-methyl-6-oxo-6,7,8,8a,9,10-hexahydro-5H-9,4b-(epiminoethano)phenanthren-7-yl)acetamide] | 456 ± 36.7 nM | 75 ± 5.51% |  |  |  |  |  | 
CN1CC[C@]23CC(=O)[C@@H](CC(=O)NCC4CC4)C[C@@]2(O)[C@H]1Cc1ccc(O)cc13 [Compound 84, N-(cyclopropylmethyl)-2-((4bR,7R,8aS,9R)-3,8a-dihydroxy-11-methyl-6-oxo-6,7,8,8a,9,10-hexahydro-5H-9,4b-(epiminoethano)phenanthren-7-yl)acetamide] | 1260 ± 301 nM | 57.7 ± 2.73% |  |  |  |  |  | 
